This passage reports IC50 results from article PMC3362524 (The Journal of General Physiology, 2012).

Where a chain is given by its changes, count along the chain named. Where two headings read alike, the source gives them in different places.

What all share (type): cell-based
For test [1], the target named is T1, NaChBac (voltage-gated sodium channel from Bacillus halodurans) (Halalkalibacterium halodurans, UniProt Q9KCR8, T220A).
T1 sequence (Q9KCR8 1-274 T220A): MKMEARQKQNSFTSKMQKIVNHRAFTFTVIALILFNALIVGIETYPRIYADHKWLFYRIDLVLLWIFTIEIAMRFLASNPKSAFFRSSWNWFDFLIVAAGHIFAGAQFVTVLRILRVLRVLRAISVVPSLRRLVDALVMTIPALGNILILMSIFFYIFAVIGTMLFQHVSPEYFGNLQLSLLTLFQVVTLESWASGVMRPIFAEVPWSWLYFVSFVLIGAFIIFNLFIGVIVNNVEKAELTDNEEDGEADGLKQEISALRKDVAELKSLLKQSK
Put plainly: patch clamp in HEK-293 cells, peak current concentration response. A general note: Patch clamp records ionic current or voltage across a cell membrane.

For test [2], the target named is T2, NaChBac (voltage-gated sodium channel from Bacillus halodurans) (Halalkalibacterium halodurans, UniProt Q9KCR8).
T2 sequence (Q9KCR8 1-274): T1 sequence (Q9KCR8 1-274 T220A) with A220T

In test [3] the target is T2, NaChBac (voltage-gated sodium channel from Bacillus halodurans). The source holds these as a separate data set.

What is called IC50 is the midpoint of a concentration-inhibition curve. A higher IC50 goes with lower potency. `CCN(CC)CC(=O)Nc1c(C)cccc1C` [lidocaine]: the figures for the IC50 in test [1] and in test [2] were 765 ± 76.3 µM and around 260 µM, respectively. The compound `COc1ccccc1OCC(O)CN1CCN(CC(=O)Nc2c(C)cccc2C)CC1` (stereo not shown) [ranolazine] yielded an IC50 in test [2] of around 60 µM. Regarding `CCOC(=O)c1ccc(N)cc1` [benzocaine], in test [3], the IC50 was determined as 650 µM.
